The text below walks through data of US4691018A, “Pyridine derivatives and their use as anti-allergic agents” (Chugai Seiyaku Kabushiki Kaisha, priority 1985, dated 1987).

For assay [1], the system named is passive cutaneous anaphylaxis (PCA). As to the kind of experiment: Inhibitory effect on passive cutaneous anaphylaxis (PCA), oral. The class given is in vivo, rat (SD/JCL strain). The note with it: rat. The protocol: Rat antiserum to egg albumin was prepared by the method of I. Mota, "Immunology" 7, 681-699 (1964), and 400 folds diluted. The diluted antiserum (0.1 ml) was injected into dorsal skin of rats (SD/JCL strain, male, 9-week-old) to subject them to passive immunization.
Forty-eight to seventy-two hours later, each rat was orally given a compound of this invention suspended in a 1% gum arabic aqueous solution. Five minutes after the administration, each rat was intravenously injected at its tail with 1 ml of a mixture containing equal volumes of a 0.5% solution of egg albumin in saline and 0.5% solution of Evans Blue in saline. Thirty minutes later, each rat was beheaded and the extravasated dye was quantitatively measured by the method of Katayama et al., "Microbiol. Immunol" 22, 89-101 (1978).
The percent inhibition was calculated by comparing the amount of Evans Blue leaking in the test groups with that in the control group in which a gum arabic aqueous solution containing no test compound was administered to the test animal.
In Table 1, inhibition efficiencies of 30 to 50%, 51-70%, 71-90% and 91% or more are represented by the ratings +, ++, +++ and ++++, respectively. The numbers given to the test compounds correspond to the Example Nos.

For assay [2], the system named is IgE antibody. The assay can be described thus: Inhibitory effect on production of IgE antibody, oral, X-ray exposed mice immunized with DNP-KLH. The class given is in vivo, mouse (SJL/J strain). The note with it: mouse. The protocol:
Inhibitory effect on production of IgE antibody SJL/J strain mice (8-week-old) were exposed to X-rays of 400 R, and concurrently injected intraperitoneally a mixture of 1 μg of Keyhole Limpet Hemocyanin (KLH) with 4 mg of an aluminum hydroxide gel. One week later, the mice were intraperitoneally administered with a mixture of 1 μg of dinitrophenyl group-binding KLH (DNP-KLH) with 4 mg of an aluminum hydroxide gel. From the next day of the immunization with DNP-KLH, each of the mice was forced to be orally administered by using gastric catherter with a test compound suspended in a 1% gum arabic aqueous solution. The mice in a control group were administered with only the gum arabic solution.
The serum was sampled from each of the mice treated above, and the amount of IgE therein was measured by the "Rat 48-hour PCA test" similarly as described in Experiment 1. The amount of IgE was expressed in terms of the maximum dilution of the serum by which a cutaneous reaction appeared in an area with a diameter of 5 mm or more to be observed.
The percent inhibition was indicated as the ratio of the amount of IgE of the test group to that of the control group.
In Table 2, inhibition efficiencies of 25-50%, 50-75% and 75% or more are represented by ratings ++, +++ and ++++, respectively. The numbers given to the test compounds correspond to the Example Nos.

As for `CCOC(=O)c1cc(C(=O)NC)nc(C(=O)NC)c1` [Compound 1, ethyl 2,6-bis(N-methylcarbamoyl)pyridine-4-carboxylate], the “Percent Inhibition” value is recorded as “++++ (91% or more)” in assay [1] (dose 5 mg/kg) and “++++ (75% or more)” in assay [2] (dose 5 mg/kg).

For the compound `CNC(=O)c1cc(C(=O)O)cc(C(=O)NC)n1` [Compound 2, 2,6-bis(N-methylcarbamoyl)pyridine-4-carboxylic acid], the “Percent Inhibition” value in assay [1] (dose 50 mg/kg) is reported as “+ (30 to 50%)”; in assay [2] (dose 50 mg/kg) it was “++++ (75% or more)”.

Turning to `CCCOC(=O)c1cc(C(=O)NC)nc(C(=O)NC)c1` [Compound 4], the “Percent Inhibition” value in assay [1] (dose 10 mg/kg) is on record as “++ (51-70%)”.

Turning to `CNC(=O)c1cc(C(=O)OC(C)C)cc(C(=O)NC)n1` [Compound 5], in assay [2] (dose 5 mg/kg), the “Percent Inhibition” value is “+++ (50-75%)”.

Take `CNC(=O)c1cc(C(=O)OCCOC)cc(C(=O)NC)n1` [Compound 7]: the “Percent Inhibition” value in assay [1] (dose 10 mg/kg) is “++ (51-70%)”.

`CNC(=O)c1cc(C(=O)OCCO)cc(C(=O)NC)n1` [Compound 8, 2-hydroxyethyl 2,6-bis(N-methylcarbamoyl)pyridine-4-carboxylate]: the “Percent Inhibition” value is reported as “++ (51-70%)” in assay [1] (dose 10 mg/kg) and “++ (25-50%)” in assay [2] (dose 5 mg/kg).

On to `CCOC(=O)c1cc(C(=O)NC)nc(C(=O)NC)c1N` [Compound 10, ethyl 3-amino-2,6-bis(N-methylcarbamoyl)pyridine-4-carboxylate], for which the “Percent Inhibition” value in assay [1] (dose 10 mg/kg) was “+++ (71-90%)”; in assay [2] (dose 10 mg/kg) it was “++++ (75% or more)”.

On to `CCOC(=O)c1cc(C(=O)NC)nc(C(=O)NC)c1NC` [Compound 11, ethyl 3-methylamino-2,6-bis(N-methylcarbamoyl)pyridine-4-carboxylate], for which the “Percent Inhibition” value in assay [1] (dose 10 mg/kg) is reported as “++++ (91% or more)”; in assay [2] (dose 5 mg/kg), “++++ (75% or more)”.
